ChEMBL document CHEMBL3045943, “Novel N-aryl(alkaryl)-2-[(3-R-2-oxo-2H-[1,2,4]triazino[2,3-c]quinazoline-6-yl)thio]acetamides: synthesis, cytotoxicity, anticancer activity, COMPARE analysis and docking” (2013)

Experiments:
Assay type in all cases: functional
[1] = tested on: Photobacterium leiognathi; experiment: Growth inhibition of Photobacterium leiognathi Sh1 assessed as bio-luminescence at 0.25 mg/ml after 16 to 18 hr by chronic action test relative to control; set-up: scale not given: the % may be the effect or the level left
NCI-H460 = experiment: Cytotoxicity against Homo sapiens (human) NCI-H460 cells assessed as cell growth at 10 uM after 48 hr by SRB assay relative to control; settings: NCI-H460, 48 h, read-out: Activity
SK-MEL-5 = experiment: Cytotoxicity against Homo sapiens (human) SK-MEL-5 cells assessed as cell growth at 10 uM after 48 hr by SRB assay relative to control; settings: SK-MEL-5, 48 h, read-out: Activity
MDA-MB-231 [2] = experiment: Cytotoxicity against Homo sapiens (human) MDA-MB-231 cells after 48 hr by SRB assay; settings: MDA-MB-231, 48 h
RXF 393 = experiment: Cytotoxicity against Homo sapiens (human) RXF393 cells assessed as cell growth at 10 uM after 48 hr by SRB assay relative to control; settings: RXF 393, 48 h, read-out: Activity
[3] = tested on: Photobacterium leiognathi; experiment: Growth inhibition of Photobacterium leiognathi Sh1 assessed as bio-luminescence at 0.1 mg/ml after 16 to 18 hr by chronic action test relative to control; set-up: scale not given: the % may be the effect or the level left
LOX IMVI = experiment: Cytotoxicity against Homo sapiens (human) LOXIMVI cells assessed as cell growth at 10 uM after 48 hr by SRB assay relative to control; settings: read-out: Activity
MDA-MB-231 [4] = experiment: Cytotoxicity against Homo sapiens (human) MDA-MB-231 cells assessed as cell growth at 10 uM after 48 hr by SRB assay relative to control; settings: MDA-MB-231, 48 h, read-out: Activity
NCI-H522 = experiment: Cytotoxicity against Homo sapiens (human) NCI-H522 cells assessed as cell growth at 10 uM after 48 hr by SRB assay relative to control; settings: NCI-H522, 48 h, read-out: Activity
786-0 = experiment: Cytotoxicity against Homo sapiens (human) 786-0 cells assessed as cell growth at 10 uM after 48 hr by SRB assay relative to control; settings: 786-0, 48 h, read-out: Activity
[5] = tested on: Photobacterium leiognathi; experiment: Growth inhibition of Photobacterium leiognathi Sh1 assessed as bio-luminescence at 0.025 mg/ml after 16 to 18 hr by chronic action test relative to control; set-up: scale not given: the % may be the effect or the level left
SF-539 = experiment: Cytotoxicity against Homo sapiens (human) SF539 cells assessed as cell growth at 10 uM after 48 hr by SRB assay relative to control; settings: SF-539, 48 h, read-out: Activity
[6] = tested on: Photobacterium leiognathi; experiment: Growth inhibition of Photobacterium leiognathi Sh1 assessed as bio-luminescence at 0.1 mg/ml after 10 min by acute action test relative to control; set-up: scale not given: the % may be the effect or the level left
DU-145 = experiment: Cytotoxicity against Homo sapiens (human) DU145 cells assessed as cell growth at 10 uM after 48 hr by SRB assay relative to control; settings: DU-145, 48 h, read-out: Activity
OVCAR-8 = experiment: Cytotoxicity against Homo sapiens (human) OVCAR8 cells assessed as cell growth at 10 uM after 48 hr by SRB assay relative to control; settings: OVCAR-8, 48 h, read-out: Activity
SNB-75 [7] = experiment: Cytotoxicity against Homo sapiens (human) SNB75 cells after 48 hr by SRB assay; settings: SNB-75, 48 h
U-251 [8] = experiment: Cytotoxicity against Homo sapiens (human) U251 cells assessed as cell growth at 10 uM after 48 hr by SRB assay relative to control; settings: U-251, 48 h, read-out: Activity
A549 = experiment: Cytotoxicity against Homo sapiens (human) A549 cells assessed as cell growth at 10 uM after 48 hr by SRB assay relative to control; settings: A549, 48 h, read-out: Activity
[9] = tested on: Photobacterium leiognathi; experiment: Growth inhibition of Photobacterium leiognathi Sh1 assessed as bio-luminescence at 0.025 mg/ml after 10 min by acute action test relative to control; set-up: scale not given: the % may be the effect or the level left
SNB-75 [10] = experiment: Cytotoxicity against Homo sapiens (human) SNB75 cells assessed as cell growth at 10 uM after 48 hr by SRB assay relative to control; settings: SNB-75, 48 h, read-out: Activity
[11] = tested on: Photobacterium leiognathi; experiment: Growth inhibition of Photobacterium leiognathi Sh1 assessed as bio-luminescence at 0.25 mg/ml after 10 min by acute action test relative to control; set-up: scale not given: the % may be the effect or the level left
A498 = experiment: Cytotoxicity against Homo sapiens (human) A498 cells after 48 hr by SRB assay; settings: A498, 48 h
SK-MEL-2 = experiment: Cytotoxicity against Homo sapiens (human) SK-MEL-2 cells assessed as cell growth at 10 uM after 48 hr by SRB assay relative to control; settings: SK-MEL-2, 48 h, read-out: Activity
HOP-62 = experiment: Cytotoxicity against Homo sapiens (human) HOP62 cells after 48 hr by SRB assay; settings: HOP-62, 48 h
U-251 [12] = experiment: Cytotoxicity against Homo sapiens (human) U251 cells after 48 hr by SRB assay; settings: U-251, 48 h
[13] = Cytotoxicity against Homo sapiens (human) NCI-ADR-RES cells assessed as cell growth at 10 uM after 48 hr by SRB assay relative to control; settings: read-out: Activity
OVCAR-3 = experiment: Cytotoxicity against Homo sapiens (human) OVCAR3 cells assessed as cell growth at 10 uM after 48 hr by SRB assay relative to control; settings: OVCAR-3, 48 h, read-out: Activity
TK-10 = experiment: Cytotoxicity against Homo sapiens (human) TK10 cells assessed as cell growth at 10 uM after 48 hr by SRB assay relative to control; settings: TK-10, 48 h, read-out: Activity
MCF7 = experiment: Cytotoxicity against Homo sapiens (human) MCF7 cells assessed as cell growth at 10 uM after 48 hr by SRB assay relative to control; settings: MCF7, 48 h, read-out: Activity
OVCAR-4 = experiment: Cytotoxicity against Homo sapiens (human) OVCAR4 cells assessed as cell growth at 10 uM after 48 hr by SRB assay relative to control; settings: OVCAR-4, 48 h, read-out: Activity
UACC-62 = experiment: Cytotoxicity against Homo sapiens (human) UACC62 cells assessed as cell growth at 10 uM after 48 hr by SRB assay relative to control; settings: UACC-62, 48 h, read-out: Activity
HCT-116 = experiment: Cytotoxicity against Homo sapiens (human) HCT116 cells assessed as cell growth at 10 uM after 48 hr by SRB assay relative to control; settings: HCT-116, 48 h, read-out: Activity
MDA-MB-435 = experiment: Cytotoxicity against Homo sapiens (human) MDA-MB-435 cells assessed as cell growth at 10 uM after 48 hr by SRB assay relative to control; settings: MDA-MB-435, 48 h, read-out: Activity
SW-620 = experiment: Cytotoxicity against Homo sapiens (human) SW620 cells assessed as cell growth at 10 uM after 48 hr by SRB assay relative to control; settings: SW-620, 48 h, read-out: Activity

O=C(CSc1nc2ccccc2c2nc(=O)c(-c3ccccc3)nn12)NCc1ccccc1F
Activity [1]: 54.5% | growth at 10 µM (NCI-H460): 5.5% | growth at 10 µM (SK-MEL-5): 47.3% | GI50 (MDA-MB-231 [2]): 2.69 µM | CC50 (MDA-MB-231 [2]; read-out: pLC50 (the source's name) (converted)): > 100 µM | TGI (MDA-MB-231 [2]; read-out: pTGI): > 100 µM | growth at 10 µM (RXF 393): 42.3% | Activity [3]: 75% | growth at 10 µM (LOX IMVI): 50.5% | growth at 10 µM (MDA-MB-231 [4]): 48.9% | growth at 10 µM (NCI-H522): 34.5% | growth at 10 µM (786-0): 16.5% | Activity [5]: 90.6% | growth at 10 µM (SF-539): 20.9% | Activity [6]: 125% | growth at 10 µM (DU-145): 35.9% | growth at 10 µM (OVCAR-8): 36.2% | GI50 (SNB-75 [7]): 1.82 µM | LC50 (SNB-75 [7]): > 100 µM | TGI (SNB-75 [7]; read-out: pTGI (converted)): > 100 µM | growth at 10 µM (U-251 [8]): 2.29% | growth at 10 µM (A549): 26% | Activity [9]: 118.8% | growth at 10 µM (SNB-75 [10]): 15.8% | Activity [11]: 100% | GI50 (A498): 1.29 µM | LC50 (A498): > 100 µM | TGI (A498; read-out: pTGI (converted)): > 100 µM | growth at 10 µM (SK-MEL-2): 50.3% | GI50 (HOP-62): 2.82 µM | LC50 (HOP-62): > 100 µM | TGI (HOP-62; read-out: pTGI (converted)): > 100 µM | GI50 (U-251 [12]): 2.69 µM | LC50 (U-251 [12]): > 100 µM | TGI (U-251 [12]; read-out: pTGI (converted)): > 100 µM | growth at 10 µM [13]: 38.8% | growth at 10 µM (OVCAR-3): 9.5% | growth at 10 µM (TK-10): 46.3% | growth at 10 µM (MCF7): 38.2% | growth at 10 µM (OVCAR-4): -39.5% | growth at 10 µM (UACC-62): 41.2% | growth at 10 µM (HCT-116): 34.5% | growth at 10 µM (MDA-MB-435): 49.6% | growth at 10 µM (SW-620): 31%
